How the values were obtained:
MCF-7 = test: In vitro anti-proliferative activity, MTT assay; assay type: cell-based; conditions: Homo sapiens, MCF7, 48 h, read-out: In vitro IC50 (nM) Mean ± SD MCF-7
CDK2/cyclin A2 = CDK2/cyclin A2 (Homo sapiens, UniProt P24941); test: CDK2/cyclin A2 Kinase-Glo Plus luminescence kinase assay

Row | SMILES | IC50 (MCF-7) [nM] | IC50 (CDK2/cyclin A2) [nM]
1 | Cc1ccc(NCC(=O)n2ncc3c(=N)n(N)cnc32)cc1 [Compound 4, 1-(5-Amino-4-imino-4,5-dihydro-1H-pyrazolo[3,4-d]pyrimidin-1-yl)-2-(p-tolylamino)ethan-1-one] | 79 ± 1.4 | –
2 | Cc1ccc(NCC(=O)n2ncc3c(=N)n(N[C@@H]4O[C@H](CO)[C@@H](O)[C@H](O)[C@H]4O)cnc32)cc1 [Compound 5, 1-(4-Imino-5-((β-D-glucopyranosyl)amino)-4,5-dihydro-1H-pyrazolo[3,4-d]pyrimidin-1-yl)-2-(p-tolylamino)ethan-1-one] | 88 ± 0.99 | 1020 ± 57
3 | Cc1ccc(NCC(=O)n2ncc3c(=N)n(N[C@@H]4OC[C@@H](O)[C@H](O)[C@H]4O)cnc32)cc1 [Compound 6, 1-(4-Imino-5-((β-D-xylopyranosyl)amino)-4,5-dihydro-1H-pyrazolo[3,4-d]pyrimidin-1-yl)-2-(p-tolylamino)ethan-1-one] | 552 ± 23 | –
4 | Cc1ccc(NCC(=O)n2ncc3c2ncn2[nH]c(=S)nc32)cc1 [Compound 7, 1-(2-Thioxo-2,3-dihydro-7H-pyrazolo[4,3-e][1,2,4]triazolo[1,5-c]pyrimidin-7-yl)-2-(p-tolylamino)ethan-1-one] | 951 ± 33 | –

Second part, the compound after the results:

Row | IC50 (MCF-7) [nM] | IC50 (CDK2/cyclin A2) [nM] | SMILES
5 | 53 ± 2.7 | 589 ± 33 | Cc1ccc(NCC(=O)n2ncc3c2ncn2nc(SCC#N)nc32)cc1 [Compound 8, 2-((7-(p-Tolylglycyl)-7H-pyrazolo[4,3-e][1,2,4]triazolo[1,5-c]pyrimidin-2-yl)thio)acetonitrile]
6 | 95 ± 4 | – | COC(CSc1nc2c3cnn(C(=O)CNc4ccc(C)cc4)c3ncn2n1)OC [Compound 9, 1-(2-((2,2-Dimethoxyethyl)thio)-7H-pyrazolo[4,3-e][1,2,4]triazolo[1,5-c]pyrimidin-7-yl)-2-(p-tolylamino)ethan-1-one]
7 | 53 ± 2.1 | 336 ± 19 | Cc1ccc(NCC(=O)n2ncc3c2ncn2nc(SCC(O)CO)nc32)cc1 (stereo not shown) [Compound 10, 1-{2-[(2,3-Dihydroxypropyl)thio]-7H-pyrazolo[4,3-e][1,2,4]triazolo[1,5-c]pyrimidin-7-yl}-2-(p-tolylamino)ethan-1-one]
8 | 91 ± 4.2 | 3650 ± 203 | CC(=O)OCC(CSc1nc2c3cnn(C(=O)CNc4ccc(C)cc4)c3ncn2n1)OC(C)=O (stereo not shown) [Compound 11, 3-((7-(p-Tolylglycyl)-7H-pyrazolo[4,3-e][1,2,4]triazolo[1,5-c]pyrimidin-2-yl)thio)propane-1,2-diyl diacetate]
9 | 97 ± 1.7 | – | Cc1ccc(NCC(=O)n2ncc3c2ncn2nc(SCCO)nc32)cc1 [Compound 12, 1-(2-((2-Hydroxyethyl)thio)-7H-pyrazolo[4,3-e][1,2,4]triazolo[1,5-c]pyrimidin-7-yl)-2-(p-tolylamino)ethan-1-one]
10 | 59 ± 0.94 | 81 ± 4 | CC(=O)OCCSc1nc2c3cnn(C(=O)CNc4ccc(C)cc4)c3ncn2n1 [Compound 13, 2-((7-(p-Tolylglycyl)-7H-pyrazolo[4,3-e][1,2,4]triazolo[1,5-c]pyrimidin-2-yl)thio)ethyl acetate]
11 | 144 ± 0.47 | – | CNC(=O)c1cc(Oc2ccc(NC(=O)Nc3ccc(Cl)c(C(F)(F)F)c3)cc2)ccn1 [Sorafenib, reference compound]

From article PMC9112407 (RSC Advances, 2022)
